Laboratory results reported in patent US7488733B2, “6-arylamino-5-cyano-4-pyrimidinones as pde9a inhibitors” (Boehringer Ingelheim International GmbH, priority 2003, dated 2009).
pIC50: −log10 of the molar value.

What was measured:
PDE9A [1] = molecular target: T1, PDE9A (Homo sapiens, UniProt O76083); experiment: PDE9A inhibition (scintillation proximity assay); format: biochemical; design: made in house; host or cells: Sf9 insect cells, pFASTBAC baculovirus; details: recombinant PDE9A, Table 2; read-out: PDE9A-inhibiting effect IC50
Description: The test substances are dissolved in 100% DMSO and serially diluted to determine their in vitro effect on PDE 9A. […] 2 μL portions of the diluted substance solutions are introduced into the wells of microtiter plates (Isoplate; Wallac Inc., Atlanta, Ga.). Then 50 μL of a dilution of the PDE9A preparation described above are added. The dilution of the PDE9A preparation is chosen so that less than 70% of the substrate is converted during the subsequent incubation (typical dilution: 1:10 000; dilution buffer: 50 mM Tris/HCl pH 7.5, 8.3 mM MgCl2, 1.7 mM EDTA, 0.2% BSA). The substrate, [8-^3H] guanosine 3′,5′-cyclic phosphate (1 μCi/μL; Amersham Pharmacia Biotech., Piscataway, N.J.) is diluted 1:2000 with assay buffer (50 mM Tris/HCl pH 7.5, 8.3 mM MgCl2, 1.7 mM EDTA) to a concentration of 0.0005 μCi/μL. The enzyme reaction is finally started by adding 50 μL (0.025 μCi) of the diluted substrate. […] Immediately thereafter, 25 μL of a suspension containing 18 mg/mL Yttrium Scintillation Proximity Beads (Amersham Pharmacia Biotech., Piscataway, N.J.) are added. The microtiter plates are sealed with a film and left to stand at room temperature for 60 min. The plates are then measured for 30 s per well in a Microbeta scintillation counter (Wallac Inc., Atlanta, Ga.). IC50 values are determined from the graphical plot of the substance concentration versus the percentage inhibition.

PDE3B = molecular target: T2, PDE3B (Homo sapiens, UniProt Q13370); experiment: PDE3B inhibition; format: biochemical; details: human isoenzyme
T2 construct: made in house; host or cells: Sf9 insect cells, pFASTBAC baculovirus
Description: (§1) Recombinant PDE1C (GenBank/EMBL Accession Number: NM_005020, Loughney et al. J. Biol. Chem. 1996 271, 796-806), PDE2A (GenBank/EMBL Accession Number: NM_002599, Rosman et al. Gene 1997 191, 89-95), PDE3B (GenBank/EMBL Accession Number: NM_000922, Miki et al. Genomics 1996, 36, 476-485), PDE4B (GenBank/EMBL Accession Number: NM_002600, Obernolte et al. Gene. 1993, 129, 239-247), PDE5A (GenBank/EMBL Accession Number: NM_001083, Loughney et al. Gene 1998, 216, 139-147), PDE7B (GenBank/EMBL Accession Number: NM_018945, Hetman et al. Proc. Natl. Acad. Sci. U.S.A. 2000, 97, 472-476), PDE8A (GenBank/EMBL Accession Number: AF—056490, Fisher et al. Biochem. Biophys. Res. Commun. […]
(§2) The test substances are dissolved in 100% DMSO and serially diluted to determine their in vitro effect on PDE 9A. […] The plates are then measured for 30 s per well in a Microbeta scintillation counter (Wallac Inc., Atlanta, Ga.). IC50 values are determined from the graphical plot of the substance concentration versus the percentage inhibition.
(§3) The in vitro effect of test substances on recombinant PDE3B, PDE4B, PDE7B, PDE8A, PDE10A and PDE11A is determined in accordance with the assay protocol described above for PDE 9A with the following adaptations: [5′,8-^3H] adenosine 3′,5′-cyclic phosphate (1 μCi/μL; Amersham Pharmacia Biotech., Piscataway, N.J.) is used as substrate. […]

PDE10A = molecular target: T3, PDE10A (Homo sapiens, UniProt Q9Y233); experiment: PDE10A inhibition; format: biochemical; details: human isoenzyme
T3 construct: made in house; host or cells: Sf9 insect cells, pFASTBAC baculovirus
Description: as §1, §2, §3

PDE4B = PDE4B (Homo sapiens, UniProt Q07343); experiment: PDE4B inhibition; format: biochemical; details: human isoenzyme
Description: as §1, §2, §3

PDE1C = molecular target: T4, PDE1C (Homo sapiens, UniProt Q14123); experiment: PDE1C inhibition; format: biochemical; details: human isoenzyme
T4 construct: made in house; host or cells: Sf9 insect cells, pFASTBAC baculovirus
Description: as §1, §2, §3

PDE8A = molecular target: T5, PDE8A (Homo sapiens, UniProt O60658); experiment: PDE8A inhibition; format: biochemical; details: human isoenzyme
T5 construct: made in house; host or cells: Sf9 insect cells, pFASTBAC baculovirus
Description: as §1, §2, §3

PDE2A = molecular target: T6, PDE2A (Homo sapiens, UniProt O00408); experiment: PDE2A inhibition; format: biochemical; details: human isoenzyme
T6 construct: made in house; host or cells: Sf9 insect cells, pFASTBAC baculovirus
Description: as §1, §2, §3

PDE5A = molecular target: T7, PDE5A (Homo sapiens, UniProt O76074); experiment: PDE5A inhibition; format: biochemical; details: human isoenzyme
T7 construct: made in house; host or cells: Sf9 insect cells, pFASTBAC baculovirus
Description: as §1, §2, §3

PDE7A = molecular target: T8, PDE7A (Homo sapiens, UniProt Q9NP56); experiment: PDE7A inhibition; format: biochemical; details: human isoenzyme
T8 construct: made in house; host or cells: Sf9 insect cells, pFASTBAC baculovirus

PDE9A [2] = molecular target: T1, PDE9A; details: concentrations of up to 100 μM; cited from earlier work
Murine PDE9A = molecular target: T9, Murine PDE9A (Mus musculus, UniProt O70628); details: concentrations below 200 μM; cited from earlier work
T9 sequence (O70628 1-534): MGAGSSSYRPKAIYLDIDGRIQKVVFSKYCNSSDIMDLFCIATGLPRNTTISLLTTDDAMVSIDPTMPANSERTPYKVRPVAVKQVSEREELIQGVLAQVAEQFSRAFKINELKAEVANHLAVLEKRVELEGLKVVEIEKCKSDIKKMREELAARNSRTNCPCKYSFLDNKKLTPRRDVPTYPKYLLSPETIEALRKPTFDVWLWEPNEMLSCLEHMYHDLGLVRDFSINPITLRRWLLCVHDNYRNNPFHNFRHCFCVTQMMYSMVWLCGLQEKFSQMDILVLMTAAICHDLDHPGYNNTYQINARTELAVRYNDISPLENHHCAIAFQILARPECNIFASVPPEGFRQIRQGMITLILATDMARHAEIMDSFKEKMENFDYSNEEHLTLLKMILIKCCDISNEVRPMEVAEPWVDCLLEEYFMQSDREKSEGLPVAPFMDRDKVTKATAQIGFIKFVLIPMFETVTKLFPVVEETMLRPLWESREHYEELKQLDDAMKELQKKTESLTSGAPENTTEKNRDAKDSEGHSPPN

T1 sequence (O76083 whole entry): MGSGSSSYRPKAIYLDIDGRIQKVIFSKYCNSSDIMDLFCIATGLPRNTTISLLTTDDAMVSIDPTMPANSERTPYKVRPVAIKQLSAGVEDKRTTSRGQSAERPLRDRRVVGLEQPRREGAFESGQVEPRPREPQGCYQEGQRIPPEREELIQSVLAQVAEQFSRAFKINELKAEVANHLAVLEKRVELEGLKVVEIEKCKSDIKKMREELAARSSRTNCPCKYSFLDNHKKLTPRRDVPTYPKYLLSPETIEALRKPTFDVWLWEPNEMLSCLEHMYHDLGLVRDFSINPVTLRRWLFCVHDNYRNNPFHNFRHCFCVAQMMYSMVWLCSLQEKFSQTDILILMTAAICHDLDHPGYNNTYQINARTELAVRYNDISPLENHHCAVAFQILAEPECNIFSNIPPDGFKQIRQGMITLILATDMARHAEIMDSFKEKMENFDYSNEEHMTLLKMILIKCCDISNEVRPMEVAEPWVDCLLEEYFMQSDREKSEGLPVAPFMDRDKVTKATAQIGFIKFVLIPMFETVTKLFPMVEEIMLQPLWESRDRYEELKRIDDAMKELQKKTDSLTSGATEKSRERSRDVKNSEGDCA
T5 sequence (O60658 117-829 limits assumed): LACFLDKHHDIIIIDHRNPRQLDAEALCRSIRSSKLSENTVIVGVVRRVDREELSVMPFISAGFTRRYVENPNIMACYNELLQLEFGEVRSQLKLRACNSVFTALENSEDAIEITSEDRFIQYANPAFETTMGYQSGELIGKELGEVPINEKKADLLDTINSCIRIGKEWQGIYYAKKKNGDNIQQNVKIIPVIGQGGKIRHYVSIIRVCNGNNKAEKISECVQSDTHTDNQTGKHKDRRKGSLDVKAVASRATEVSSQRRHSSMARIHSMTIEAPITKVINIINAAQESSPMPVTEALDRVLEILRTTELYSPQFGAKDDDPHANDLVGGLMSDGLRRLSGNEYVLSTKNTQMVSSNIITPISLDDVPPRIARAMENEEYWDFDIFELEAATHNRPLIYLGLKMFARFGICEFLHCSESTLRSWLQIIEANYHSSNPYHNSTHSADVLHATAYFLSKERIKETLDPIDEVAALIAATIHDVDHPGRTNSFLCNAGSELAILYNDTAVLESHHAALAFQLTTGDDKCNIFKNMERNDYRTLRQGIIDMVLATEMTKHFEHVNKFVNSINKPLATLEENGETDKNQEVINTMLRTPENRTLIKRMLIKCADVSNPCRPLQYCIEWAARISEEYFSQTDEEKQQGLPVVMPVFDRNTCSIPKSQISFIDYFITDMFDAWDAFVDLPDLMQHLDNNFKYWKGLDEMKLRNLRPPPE
Sequence of PDE4B (Q07343 212-736 limits assumed): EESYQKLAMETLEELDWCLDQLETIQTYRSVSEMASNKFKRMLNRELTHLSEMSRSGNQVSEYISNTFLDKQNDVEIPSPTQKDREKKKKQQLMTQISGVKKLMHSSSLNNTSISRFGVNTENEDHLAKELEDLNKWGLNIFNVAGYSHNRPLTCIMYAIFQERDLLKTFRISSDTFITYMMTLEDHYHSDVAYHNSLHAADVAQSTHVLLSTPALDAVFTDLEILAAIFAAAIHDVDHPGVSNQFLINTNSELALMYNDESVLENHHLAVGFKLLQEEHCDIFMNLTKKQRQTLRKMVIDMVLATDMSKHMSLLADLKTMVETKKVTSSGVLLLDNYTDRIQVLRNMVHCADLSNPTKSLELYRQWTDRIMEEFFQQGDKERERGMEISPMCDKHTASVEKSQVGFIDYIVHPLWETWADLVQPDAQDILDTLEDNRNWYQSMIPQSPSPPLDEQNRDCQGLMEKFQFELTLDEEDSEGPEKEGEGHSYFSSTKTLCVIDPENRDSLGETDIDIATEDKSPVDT
T8 sequence (Q9NP56 whole entry): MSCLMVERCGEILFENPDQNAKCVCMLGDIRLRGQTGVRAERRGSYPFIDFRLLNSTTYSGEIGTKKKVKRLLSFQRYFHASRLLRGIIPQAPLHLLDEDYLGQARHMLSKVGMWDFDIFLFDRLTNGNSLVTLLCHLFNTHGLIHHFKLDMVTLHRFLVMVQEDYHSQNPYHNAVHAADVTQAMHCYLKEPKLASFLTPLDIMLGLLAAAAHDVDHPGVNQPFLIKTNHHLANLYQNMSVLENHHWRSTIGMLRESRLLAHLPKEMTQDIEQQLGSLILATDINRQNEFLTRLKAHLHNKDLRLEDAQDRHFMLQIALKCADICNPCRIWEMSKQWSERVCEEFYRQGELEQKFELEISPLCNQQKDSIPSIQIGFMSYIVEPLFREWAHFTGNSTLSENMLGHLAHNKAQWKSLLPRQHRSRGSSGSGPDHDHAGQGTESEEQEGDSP
T6 sequence (O00408 whole entry): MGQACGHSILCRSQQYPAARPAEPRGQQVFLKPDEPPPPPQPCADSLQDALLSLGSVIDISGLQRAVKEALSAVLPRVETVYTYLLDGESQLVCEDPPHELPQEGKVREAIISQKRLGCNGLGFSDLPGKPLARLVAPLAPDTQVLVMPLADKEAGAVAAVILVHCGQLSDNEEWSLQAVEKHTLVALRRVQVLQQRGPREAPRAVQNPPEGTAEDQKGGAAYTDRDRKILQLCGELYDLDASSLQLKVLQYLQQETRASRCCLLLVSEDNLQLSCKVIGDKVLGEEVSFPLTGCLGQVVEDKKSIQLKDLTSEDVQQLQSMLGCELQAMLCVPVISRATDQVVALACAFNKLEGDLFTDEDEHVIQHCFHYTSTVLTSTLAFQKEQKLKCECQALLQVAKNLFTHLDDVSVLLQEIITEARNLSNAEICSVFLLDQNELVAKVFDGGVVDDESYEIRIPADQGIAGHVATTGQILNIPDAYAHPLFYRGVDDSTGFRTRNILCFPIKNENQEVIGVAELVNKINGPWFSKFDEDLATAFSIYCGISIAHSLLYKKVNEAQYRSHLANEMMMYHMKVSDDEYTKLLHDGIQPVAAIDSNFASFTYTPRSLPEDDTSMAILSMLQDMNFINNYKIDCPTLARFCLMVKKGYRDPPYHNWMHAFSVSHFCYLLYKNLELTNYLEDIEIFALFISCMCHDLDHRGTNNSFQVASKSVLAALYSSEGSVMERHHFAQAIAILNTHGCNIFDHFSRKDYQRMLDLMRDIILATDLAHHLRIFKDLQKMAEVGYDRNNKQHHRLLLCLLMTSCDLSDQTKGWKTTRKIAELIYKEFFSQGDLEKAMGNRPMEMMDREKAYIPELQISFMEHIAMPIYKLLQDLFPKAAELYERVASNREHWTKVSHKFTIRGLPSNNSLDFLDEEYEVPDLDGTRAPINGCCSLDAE
T2 sequence (Q13370 whole entry): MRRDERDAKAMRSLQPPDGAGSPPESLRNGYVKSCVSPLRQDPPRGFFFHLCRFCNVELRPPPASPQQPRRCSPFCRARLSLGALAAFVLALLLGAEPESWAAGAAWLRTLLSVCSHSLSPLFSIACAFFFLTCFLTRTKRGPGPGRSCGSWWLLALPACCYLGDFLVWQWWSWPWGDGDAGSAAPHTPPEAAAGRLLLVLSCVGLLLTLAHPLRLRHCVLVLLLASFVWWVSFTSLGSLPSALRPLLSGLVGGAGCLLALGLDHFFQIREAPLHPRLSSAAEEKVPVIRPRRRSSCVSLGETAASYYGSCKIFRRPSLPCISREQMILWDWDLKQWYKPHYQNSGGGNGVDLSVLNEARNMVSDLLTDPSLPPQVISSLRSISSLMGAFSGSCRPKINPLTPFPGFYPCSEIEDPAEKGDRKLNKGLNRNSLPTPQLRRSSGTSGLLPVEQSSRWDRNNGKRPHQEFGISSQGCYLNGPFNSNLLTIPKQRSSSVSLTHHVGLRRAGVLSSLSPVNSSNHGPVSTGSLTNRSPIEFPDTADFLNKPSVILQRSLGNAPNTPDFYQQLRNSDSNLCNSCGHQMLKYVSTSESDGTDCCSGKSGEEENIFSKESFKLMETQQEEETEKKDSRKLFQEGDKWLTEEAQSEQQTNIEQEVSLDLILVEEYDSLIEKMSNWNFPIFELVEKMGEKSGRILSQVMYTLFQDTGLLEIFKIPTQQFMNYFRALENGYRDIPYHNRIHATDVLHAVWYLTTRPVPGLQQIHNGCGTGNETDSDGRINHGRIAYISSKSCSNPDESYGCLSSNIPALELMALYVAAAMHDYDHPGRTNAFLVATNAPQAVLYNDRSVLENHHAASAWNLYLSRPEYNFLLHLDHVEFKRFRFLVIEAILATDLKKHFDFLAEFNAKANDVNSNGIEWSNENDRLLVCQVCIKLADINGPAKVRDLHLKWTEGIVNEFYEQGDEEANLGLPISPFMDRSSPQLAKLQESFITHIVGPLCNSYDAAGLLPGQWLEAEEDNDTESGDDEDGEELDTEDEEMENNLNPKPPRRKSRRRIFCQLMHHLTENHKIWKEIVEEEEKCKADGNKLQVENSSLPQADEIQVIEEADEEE

Row | Compound | pIC50 (PDE9A [1]) | inhibition of isolated human PDE9A (PDE9A [2]) | also measured
1 | Cc1ccncc1Nc1nc(CC2CCCCC2)[nH]c(=O)c1C#N [Example 3, 2-(Cyclohexylmethyl)-4-[(4-methyl-3-pyridinyl)amino]-6-oxo-1,6-dihydro-5-pyrimidinecarbonitrile] |  |  | pIC50 (PDE3B): < 5.40; pIC50 (PDE10A): < 5.40; pIC50 (PDE4B): < 5.40; pIC50 (PDE1C): < 5.40; pIC50 (PDE8A): < 5.40; pIC50 (PDE2A): < 5.40; pIC50 (PDE5A): 5.85; pIC50 (PDE7A): < 5.40
2 | CC(C)Cn1c(=O)n(C)c(=O)c2[nH]cnc21 [IBMX] |  | no inhibition | inhibition of murine PDE9A (Murine PDE9A): not inhibited
3 | CC(=O)Nc1ccc(-c2c[nH]c(=O)cn2)cc1 [SKF94120] |  | no inhibition | 
4 | OCCN(CCO)c1nc(N2CCCCC2)c2nc(N(CCO)CCO)nc(N3CCCCC3)c2n1 [dipyridamole] |  | no inhibition | 
5 | COc1ccc(C2CNC(=O)C2)cc1OC1CCCC1 (stereo not drawn) [rolipram] |  | no inhibition | 
6 | CCOC(=O)C1=C[C@]2(CC)CCCN3CCc4c(n1c1ccccc41)[C@@H]32 [vinpocetine] |  | no inhibition | 

Now from value to compound, other results behind:

Row | pIC50 (PDE9A [1]) | Compound | inhibition of isolated human PDE9A (PDE9A [2]) | also measured
7 | 7.12 | N#Cc1c(Nc2ccc(F)cc2)nc(CC2CCCC2)[nH]c1=O [Example 1, 2-(Cyclopentylmethyl)-4-[(fluorophenyl)amino]6-oxo-1,6-dihydro-5-pyrimidinecarbonitrile] |  | 
8 | 7.27 | Cc1c(F)cccc1Nc1nc(CC2CCCC2)[nH]c(=O)c1C#N [Example 7, 2-(Cyclopentylmethyl)-4-[(3-fluoro-2-methylphenyl)amino]-6-oxo-1,6-dihydro-5-pyrimidinecarbonitrile] |  | 
9 | 7.12 | CCC(C)Cc1nc(Nc2ccccc2C)c(C#N)c(=O)[nH]1 (stereo not drawn) [Example 14, 2-(2-Methylbutyl)-4-[(2-methylphenyl)amino]-6-oxo-1,6-dihydro-5-pyrimidinecarbonitrile] |  | 
10 | 7.06 | Cc1ccc(F)cc1Nc1nc(CC2CCCC2)[nH]c(=O)c1C#N [Example 23] |  | 
